Measured values published in US20160136108A1, “HYDROXYTYROSOL COMPOSITIONS FOR TREATMENT OF CARTILAGE INJURIES IN JOINTS” (DSM IP ASSETS B.V., priority 2007, published 2016).

How the values were obtained:
Type in all cases: cell-based
Human IL-R antagonist = experiment: Anti-catabolic gene expression by quantitative real-time PCR in normal human primary chondrocytes: IL-R antagonist; conditions: normal human primary chondrocytes (HNAC-kn); 4 hours
Experimental: (§1) […] These primary chondrocytes were passaged in vitro not more than 4 times, before being used for experiments. Cells were cultured in chondrocyte differentiation medium (Cambrex, #CC-3225) without or with substances for 4 hours. Total RNA was extracted from cultured cells and reverse-transcribed as described by Richard et al. Mol. Nutr. Food Res. 49, 431-442, 2005. Expression levels of distinct genes were determined by quantitative real-time PCR as detailed in Richard et al. Mol. Nutr. Food Res. 49, 431-442, 2005.

human aggrecan = experiment: Anabolic gene expression by quantitative real-time PCR in normal human primary chondrocytes: aggrecan
Experimental: as §1

human COL2A1 = experiment: Anabolic gene expression by quantitative real-time PCR in normal human primary chondrocytes: COL2A1
Experimental: as §1

human SOX-5 = experiment: Anabolic gene expression by quantitative real-time PCR in normal human primary chondrocytes: SOX-5; conditions: normal human primary chondrocytes (HNAC-kn); 4 hours
Experimental: as §1

human SOX-6 = experiment: Anabolic gene expression by quantitative real-time PCR in normal human primary chondrocytes: SOX-6; conditions: normal human primary chondrocytes (HNAC-kn); 4 hours
Experimental: as §1

[1] = 12.5 microM OH-Tyrosol, normal human primary chondrocytes (HNAC-kn), 4 hours
[2] = in words, normal human primary chondrocytes

In the case of `OCCc1ccc(O)c(O)c1` [OH-Tyrosol, 4-(2-hydroxylethyl)-1,2-benzenediol], the “level of gene expression, Human IL-R antagonist” value (Human IL-R antagonist) is reported as 113 % of control-treated cells, the “level of gene expression, human aggrecan” value (human aggrecan; [1]) is reported as 125 % of control-treated cells and the “effect of compounds on gene expression, human aggrecan” value (human aggrecan; [2]) is reported as “substantially increased”. The “level of gene expression, human COL2A1” value (human COL2A1; [1]) was 247 % of control-treated cells, the “effect of compounds on gene expression, human COL2A1 (collagen II)” value (human COL2A1; [2]) was “substantially increased” and the “level of gene expression, human SOX-5” value (human SOX-5) was 130 % of control-treated cells. The “level of gene expression, human SOX-6” value (human SOX-6) was 127 % of control-treated cells.
